Source: patent US20240400553A1, “AMINE BASED MATRIPTASE 2 INHIBITORS AND USES THEREOF” (Disc Medicine, Inc., priority 2023, published 2024)
pKi: −log10 of the molar value.

Each compound was assayed against T1, Human Recombinant Matriptase 2 (Homo sapiens, UniProt Q8IU80) (assay: Matriptase 2 inhibition, fluorescence based assay (Method I)). Details: Table A; Ki of Matriptase-2; read-out: Mat-2 Ki.
T1 construct: made in house
T1 sequence (Q8IU80 1-811): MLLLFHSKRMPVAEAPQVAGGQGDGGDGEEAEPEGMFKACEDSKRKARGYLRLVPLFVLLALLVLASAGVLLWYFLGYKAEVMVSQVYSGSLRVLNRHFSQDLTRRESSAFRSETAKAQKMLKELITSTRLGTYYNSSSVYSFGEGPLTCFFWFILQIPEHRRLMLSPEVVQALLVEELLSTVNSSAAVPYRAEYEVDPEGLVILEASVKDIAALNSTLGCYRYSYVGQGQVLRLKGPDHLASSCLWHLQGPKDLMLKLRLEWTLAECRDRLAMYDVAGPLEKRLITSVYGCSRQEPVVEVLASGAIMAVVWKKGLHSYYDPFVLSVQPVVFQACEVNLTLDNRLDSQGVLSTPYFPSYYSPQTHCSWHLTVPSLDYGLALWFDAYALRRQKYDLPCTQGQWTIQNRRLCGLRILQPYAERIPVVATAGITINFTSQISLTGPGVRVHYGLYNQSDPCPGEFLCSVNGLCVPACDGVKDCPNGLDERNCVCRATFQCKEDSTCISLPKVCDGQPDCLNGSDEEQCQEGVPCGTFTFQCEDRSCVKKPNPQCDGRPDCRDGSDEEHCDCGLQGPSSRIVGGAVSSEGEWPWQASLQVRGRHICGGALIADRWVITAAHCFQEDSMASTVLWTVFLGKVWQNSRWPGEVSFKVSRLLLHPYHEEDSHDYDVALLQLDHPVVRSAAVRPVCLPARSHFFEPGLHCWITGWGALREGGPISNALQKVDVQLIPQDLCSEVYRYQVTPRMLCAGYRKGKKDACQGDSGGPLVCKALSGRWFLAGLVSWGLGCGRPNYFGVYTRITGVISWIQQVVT
Format: biochemical
Method in brief: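 Fluorogenic readout (Ex 360/Em 480 nm) taken 60 min after adding 62 μM Boc-Gln-Ala-Arg-AMC, following 30-min enzyme–compound preincubation at 25 °C. Conditions: 3.5 nM in-house enzyme, pH 7.5 Tris/NaCl/gelatin buffer, 1% DMSO; percent inhibition versus concentration fitted by variable-slope sigmoidal regression.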

pKi, 6.30 to 7.00:
NCc1ccc2cc(C(=O)OCCO)n(Cc3cc(NS(=O)(=O)Cc4ccccc4)cc4ccccc34)c2n1 [Compound 82, 2-hydroxyethyl 6-(amino-methyl)-1-{[3-(phenyl-methanesulfonamido)-naphthalen-1-yl]methyl}-1H-pyrrolo[2,3-b]pyr-idine-2-carboxylate]
CN1CCC(CCS(=O)(=O)NC(=O)c2cc3ccc(CN)nc3n2Cc2cc(NS(=O)(=O)Cc3ccccc3)cc3ccccc23)CC1 [Compound 83, 6-(aminomethyl)-N-[2-(1-methylpiperidin-4-yl)-ethanesulfonyl]-1-{[3-(phenylmethanesulfon-amido)naphthalen-1-yl]-methyl}-1H-pyrrolo[2,3-b]pyridine-2-carboxamide]
NCc1ccc2cc(C(=O)OCCS(N)(=O)=O)n(Cc3cc(NS(=O)(=O)Cc4ccccc4)cc4ccccc34)c2n1 [Compound 84, 2-sulfamoylethyl 6-(aminomethyl)-1-{[3-(phenylmethanesulfon-amido)naphthalen-1-yl]-methyl}-1H-pyrrolo[2,3-b]pyridine-2-carboxylate]
NCc1ccc2cc(C(=O)OCc3ccccn3)n(Cc3cc(NS(=O)(=O)Cc4ccccc4)cc4ccccc34)c2n1 [Compound 85, (pyridin-2-yl)methyl 6-(aminomethyl)-1-{[3-(phenylmethanesulfon-amido)naphthalen-1-yl]-methyl}-1H-pyrrolo[2,3-b]pyridine-2-carboxylate]
NCc1ccc2cc(C(=O)OCCn3cnnn3)n(Cc3cc(NS(=O)(=O)Cc4ccccc4)cc4ccccc34)c2n1 [Compound 86, 2-(1H-1,2,3,4-tetrazol-1-yl)ethyl 6-(amino-methyl)-1-{[3-(phenyl-methanesulfonamido)-naphthalen-1-yl]methyl}-1H-pyrrolo[2,3-b]pyr-idine-2-carboxylate]
CC(C)n1cnc(COC(=O)c2cc3ccc(CN)nc3n2Cc2cc(NS(=O)(=O)Cc3ccccc3)cc3ccccc23)c1 [Compound 87, [1-(propan-2-yl)-1H-imidazol-4-yl]methyl 6-(aminomethyl)-1-{[3-(phenylmethanesulfon-amido)naphthalen-1-yl]-methyl}-1H-pyrrolo[2,3-b]pyridine-2-carboxylate]
Cc1oc(=O)oc1COC(=O)c1cc2ccc(CN)nc2n1Cc1cc(NS(=O)(=O)Cc2ccccc2)cc2ccccc12 [Compound 88, (5-methyl-2-oxo-2H-1,3-dioxol-4-yl)methyl 6-(aminomethyl)-1-{[3-(phenylmethanesulfon-amido)naphthalen-1-yl]-methyl}-1H-pyrrolo[2,3-b]pyridine-2-carboxylate]
CC(C)n1ccc(COC(=O)c2cc3ccc(CN)nc3n2Cc2cc(NS(=O)(=O)Cc3ccccc3)cc3ccccc23)n1 [Compound 90, [1-(propan-2-yl)-1H-pyrazol-3-yl]methyl 6-(aminomethyl)-1-{[3-(phenylmethanesulfon-amido)naphthalen-1-yl]-methyl}-1H-pyrrolo[2,3-b]pyridine-2-carboxylate]
NCCOC(=O)c1cc2ccc(CN)nc2n1Cc1cc(NS(=O)(=O)Cc2ccccc2)cc2ccccc12 [Compound 91, 2-aminoethyl 6-(amino-methyl)-1-{[3-(phenyl-methanesulfonamido)naphthalen-1-yl]methyl}-1H-pyrrolo[2,3-b]pyr-idine-2-carboxylate]
NCc1ccc2cc(C(=O)OCCn3ccnn3)n(Cc3cc(NS(=O)(=O)Cc4ccccc4)cc4ccccc34)c2n1 [Compound 92, 2-(1H-1,2,3-triazol-1-yl-ethyl 6-(aminomethyl)-1-{[3-(phenylmethane-sulfonamido)naphthalen-1-yl]methyl}-1H-pyrrolo-[2,3-b]pyridine-2-carbox-ylate]
NCc1ccc2cc(C(=O)OCCn3ccnc3)n(Cc3cc(NS(=O)(=O)Cc4ccccc4)cc4ccccc34)c2n1 [Compound 93, 2-(1H-imidazol-1-yl)-ethyl 6-(aminomethyl)-1-{[3-(phenylmethanesul-fonamido)naphthalen-1-yl]methyl}-1H-pyrrolo-[2,3-b]pyridine-2-car-boxylate]
NCc1ccc2cc(C(=O)OCCNC(N)=O)n(Cc3cc(NS(=O)(=O)Cc4ccccc4)cc4ccccc34)c2n1 [Compound 94, 2-(carbamoylamino)-ethyl 6-(aminomethyl)-1-{[3-(phenylmethanesul-fonamido)naphthalen-1-yl]methyl}-1H-pyrrolo-[2,3-b]pyridine-2-carbox-ylate]
COCCOC(=O)c1cc2ccc(CN)nc2n1Cc1cc(NS(=O)(=O)Cc2ccccc2)cc2ccccc12 [Compound 95, 2-methoxyethyl 6-(aminomethyl)-1-{[3-(phenylmethanesulfon-amido)naphthalen-1-yl]-methyl}-1H-pyrrolo[2,3-b]pyridine-2-carboxylate]
CC(C)(C)n1cnc(COC(=O)c2cc3ccc(CN)nc3n2Cc2cc(NS(=O)(=O)Cc3ccccc3)cc3ccccc23)c1 [Compound 96, (1-tert-butyl-1H-imid-azol-4-yl)methyl 6-(aminomethyl)-1-{[3-(phenylmethanesulfon-amido)naphthalen-1-yl]-methyl}-1H-pyrrolo[2,3-b]pyridine-2-carboxylate]
NCc1ccc2cc(C(=O)OCCn3cncn3)n(Cc3cc(NS(=O)(=O)Cc4ccccc4)cc4ccccc34)c2n1 [Compound 97]
NCc1ccc2cc(C(=O)OCc3ccncc3)n(Cc3cc(NS(=O)(=O)Cc4ccccc4)cc4ccccc34)c2n1 [Compound 100, (pyridin-4-yl)methyl 6-(aminomethyl)-1-{[3-(phenylmethanesulfon-amido)naphthalen-1-yl]-methyl}-1H-pyrrolo[2,3-b]pyridine-2-carboxylate]
NCc1ccc2cc(C(=O)OCc3cn(CC(F)(F)F)cn3)n(Cc3cc(NS(=O)(=O)Cc4ccccc4)cc4ccccc34)c2n1 [Compound 101, [1-(2,2,2-trifluoroethyl)-1H-imidazol-4-yl]methyl 6-(aminomethyl)-1-{[3-(phenylmethanesulfon-amido)naphthalen-1-yl]-methyl}-1H-pyrrolo[2,3-b]pyridine-2-carboxylate]
NCc1ccc2cc(C(=O)OCCC3CCOCC3)n(Cc3cc(NS(=O)(=O)Cc4ccccc4)cc4ccccc34)c2n1 [Compound 102, 2-(oxan-4-yl)ethyl 6-(aminomethyl)-1-{[3-(phenylmethanesulfon-amido)naphthalen-1-yl]-methyl}-1H-pyrrolo[2,3-b]pyridine-2-carboxylate]
NCc1ccc2cc(C(=O)OCc3cncn3CC(F)(F)F)n(Cc3cc(NS(=O)(=O)Cc4ccccc4)cc4ccccc34)c2n1 [Compound 103, [1-(2,2,2-trifluoroethyl)-1H-imidazol-5-yl]methyl 6-(aminomethyl)-1-{[3-(phenylmethanesulfon-amido)naphthalen-1-yl]-methyl}-1H-pyrrolo[2,3-b]pyridine-2-carboxylate]
CC(C)(C)n1cncc1CCOC(=O)c1cc2ccc(CN)nc2n1Cc1cc(NS(=O)(=O)Cc2ccccc2)cc2ccccc12 [Compound 104, 2-(1-tert-butyl-1H-imid-azol-5-yl)ethyl 6-(amino-methyl)-1-{[3-(phenyl-methanesulfonamido)-naphthalen-1-yl]methyl}-1H-pyrrolo[2,3-b]pyr-idine-2-carboxylate]
NCc1ccc2cc(C(=O)OCCF)n(Cc3cc(NS(=O)(=O)Cc4ccccc4)cc4ccccc34)c2n1 [Compound 105, 2-fluoroethyl 6-(amino-methyl)-1-{[3-(phenyl-methanesulfonamido)-naphthalen-1-yl]methyl}-1H-pyrrolo[2,3-b]pyr-idine-2-carboxylate]
CC(C)(C)n1ccc(COC(=O)c2cc3ccc(CN)nc3n2Cc2cc(NS(=O)(=O)Cc3ccccc3)cc3ccccc23)n1 [Compound 106, (1-tert-butyl-1H-pyrazol-3-yl)methyl 6-(amino-methyl)-1-{[3-(phenyl-methanesulfonamido)-naphthalen-1-yl]methyl}-1H-pyrrolo[2,3-b]pyr-idine-2-carboxylate]
NCc1ccc2cc(C(=O)OCC3CCN(CC(F)F)CC3)n(Cc3cc(NS(=O)(=O)Cc4ccccc4)cc4ccccc34)c2n1 [Compound 107, [1-(2,2-difluoroethyl)-piperidin-4-yl]methyl 6-(aminomethyl)-1-{[3-(phenylmethanesulfon-amido)naphthalen-1-yl]-methyl}-1H-pyrrolo[2,3-b]pyridine-2-carboxylate]
CN(c1cc(Cn2c(C(=O)O)cc3ccc(CN)nc32)c2ccccc2c1)S(=O)(=O)Cc1ccccc1 [Compound 109, 6-(aminomethyl)-1-{[3-(N-methylphenylmeth-anesulfonamido)naph-thalen-1-yl]methyl}-1H-pyrrolo[2,3-b]pyridine-2-carboxylic acid]
